Patent publication US9586914B2, “Modulators of C3a receptors” (THE UNIVERSITY OF QUEENSLAND, priority 2011, dated 2017)
“Also recorded” adds a separate entry of the source. Like-named read-outs stand apart in the source and are kept apart here.

Experiments:
C3a receptor (C3aR) = molecular target: T1, C3a receptor (C3aR) (Homo sapiens, UniProt Q16581); assay: Competitive binding with [^125I]-C3a in HMDM; details: for pIC50 ± SEM / IC50 / Receptor Binding Affinity pIC50 ± SE: HMDM
T1 construct: peripheral blood mononuclear cells were isolated from buffy coat (obtained from Australian Red Cross Blood Service, Kelvin Grove); endogenous in cells; host or cells: primary human monocyte-derived macrophages (HMDM) differentiated from CD14+ monocytes of donor buffy coat
T1 sequence (Q16581 1-482): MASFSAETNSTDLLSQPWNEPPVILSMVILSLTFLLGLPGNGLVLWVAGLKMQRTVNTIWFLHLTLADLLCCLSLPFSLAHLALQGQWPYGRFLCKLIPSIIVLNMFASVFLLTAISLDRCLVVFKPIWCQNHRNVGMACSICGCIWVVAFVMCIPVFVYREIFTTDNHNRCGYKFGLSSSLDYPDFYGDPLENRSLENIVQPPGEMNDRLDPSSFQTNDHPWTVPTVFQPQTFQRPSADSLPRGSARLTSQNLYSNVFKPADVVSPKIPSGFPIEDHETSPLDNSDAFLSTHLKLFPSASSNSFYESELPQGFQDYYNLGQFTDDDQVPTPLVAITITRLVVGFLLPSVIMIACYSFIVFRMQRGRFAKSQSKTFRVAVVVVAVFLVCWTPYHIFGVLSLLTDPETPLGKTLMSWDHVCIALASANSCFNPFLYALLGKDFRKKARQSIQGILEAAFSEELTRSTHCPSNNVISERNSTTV
Summary of the method: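 IC50 values are geometric means, with −log IC50 computed per experiment and given as arithmetic mean ± SE. Cells were CD14+ monocytes from buffy-coat PBMC, differentiated to macrophages and used on day 7. Unbound label was removed by GF/B filtration with 3 cold washes in 50 mM Tris-HCl pH 7.4.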

C3aR [1] = molecular target: T2, C3aR (Homo sapiens, UniProt Q16581); assay: Calcium mobilization assay in HMDM (agonist/antagonist activity); type: cell-based
T2 construct: peripheral blood mononuclear cells were isolated from buffy coat (obtained from Australian Red Cross Blood Service, Kelvin Grove); endogenous in cells; host or cells: primary human monocyte-derived macrophages (HMDM) differentiated from CD14+ monocytes of donor buffy coat
T2 sequence (Q16581 1-482): T1 sequence (Q16581 1-482)
Summary of the method: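 Human monocyte-derived macrophages, 5×10^4 cells/well, loaded 1 h at 37 °C with 4 μM Fluo-3 in HBSS/HEPES/probenecid buffer, pH 7.4. Agonist mode: calcium release read 300 s; antagonist mode: 900 s compound preincubation then agonist, read 300 s (ex 485/em 520 nm); compared with hC3a.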

[2] = tested on: IL1B, IL8, CCL3, EGR1, FOSB and TNF gene expression in HMDMs; assay: Regulation of inflammatory genes in HMDM (qRT-PCR); type: cell-based, human; details: for Induction of gene expression of IL1B, IL8, CCL3, EGR1, FOSB and TNF: HMDMs, 300 nM, 30 minutes, qRT-PCR, fold change from control
Text: Human monocyte-derived macrophages (HMDMS) were isolated from buffy coat of anonymous donors provided by the Australian Red Cross Blood Service at Kelvin Grove, Queensland, Australia. White blood cells were separated from other blood components into different layers using Ficoll-Paque Plus Density Centrifugation (GE Healthcare Bio-Science, Uppsala, Sweden) according to manufacturer's instruction. The isolated white blood cells were repeatedly washed with ice-cold water to remove contaminating erythrocytes. CD14^+ monocytes were positively selected from white blood cells using CD14^+ Macs Magnetic Beads (Miltenyi biotech, Auburn, Calif., USA) after successive magnetic sorting and washings. CD14^+ monocytes (1.5×10^6 cells/mL) were seeded in 10 mL of IMDM supplemented with 10% fetal calf serum (FBS), 10 U/mL streptomycin, 10 U/mL penicillin and 2 mmol L-glutamine (Invitrogen). To generate HMDMS, […] of recombinant human macrophage colony stimulating factor (M-CSF) (Peprotech Inc., rocky Hill, N.J., USA) was added for differentiation. HMDMS were maintained at 37° C. in a humidified incubator with 5% CO2 for a week to fully differentiate. At day 7, the adhered HMDMS were harvested by gentle scraping in saline solution.
HMDMs (2×10^6) in 2 mL of IMDM medium were transferred into each well on a 6-well plate. The cells were left to incubate for 6 h to allow adhesion before being serum starved in serum free IMDM to reduce background noise of the C3a treatment. In the time response experiment, cells were treated with 10 nM of C3a or agonist (compound 8 or 64) for 0.5, 1, 2 or 6 h. In concentration response experiments, cells were treated with 1, 10, 100 or 300 nM for 1 h. To prepare the samples for the microarray experiments, cells were treated with agonist at 100-300 nM for 30 min or 1 h in the absence or presence of the antagonist (e.g. SB-290157 or antagonists). […] Cells were washed with saline solution at the end of each treatment before the RNA extraction step.
Total RNA was extracted from cells using RNeasy Mini Plus kit (Qiagen, USA) according to the manufacturer's instructions. The concentration of the RNA was determined by measuring absorbance at λ=260/280 […] on a nanodrop spectrophotometer (Thermo Scientific), according to the manufacturer's instructions.
Total RNA (2-5 μg) was reverse transcribed with Superscript III (Invitrogen, USA) using random oligo dT primer. Reagents were incubated (50 min, 50° C.; then 10 min, 70° C.) in thermal cyclers (Bio-Rad) to complete the reaction, cDNA samples were stored at −20° C. until further use. All RNA work was performed on ice (4° C.) to prevent degradation of the RNA samples.
cDNA (0.5 μg) samples were prepared with 5 μL SYBR® Green PCR master mix (Applied Biosystems™, CA, USA), 2 μL relevant primers (2 μM) and 1 μL dH2O before being analysed using an ABI 7900HT Fast Real-Time PCR System (Applied Biosystems™, CA, USA) according to the manufacturer's specifications. Fluorescence data was collected during the extension phase (60° C.). The concentration response data for each sample was then normalised against the same data for control housekeeping gene, (18S) to quantify and generate gene expression data. All samples were done in at least duplicate. Primers were designed using the Primer-BLAST software (National Center for Biotechnology Information, USA). Primers contained, amplicons that cross exon-exon boundaries to prevent amplification of genomic DNA. […]

C3aR [3] = molecular target: T2, C3aR; assay: Desensitization experiments (Ca^2+ efflux after hC3a desensitization); type: cell-based; details: hC3a 3 μM first; second addition of 1 μM compound; HMDM
Description: Desensitization experiments were used to measure the selectivity of various ligands for C3aR, since this can help to clarify whether the non-peptidic ligands bind selectively to C3aR over other GPCRs that signal through intracellular calcium release.
The hC3a (3 μM) was administered to human monocyte derived macrophage cells, which produces an efflux of intracellular Ca^2+ that dissipates after 4-5 mins (FIGS. 4A and 4B). A second addition of 3 μM hC3a after 5 mins has no effect, due to desensitization of the receptor through either receptor (C3a receptor) phosphorylation or receptor internalization from the cell surface.

[4] = Table 6, competitive binding with [^125I]-C3a
[5] = Table 6, competitive binding with [^125I]-C3a, read-out: IC50 (converted)
[6] = Table 8, read-out: Receptor Binding Affinity ^125I IC50
[7] = Table 11, [^125I]-C3a, read-out: Receptor Binding Affinity IC50
[8] = Table 9, Ca^2+ mobilization, HMDM
[9] = Table 9, Ca^2+ mobilization, HMDM, read-out: EC50
[10] = Table 10, HMDM, read-out: Agonist Activity EC50
[11] = Table 11, Ca^2+ mobilisation, HMDM
[12] = Table 11, Ca^2+ mobilisation, HMDM, read-out: Apparent Antagonist Activity EC50

Molecule	pIC50 ± SEM (C3a receptor (C3aR); [4])	IC50 (C3a receptor (C3aR); [5]) [nM]	IC50 (C3a receptor (C3aR); [6]) [nM]	Receptor Binding Affinity pIC50 ± SE (C3a receptor (C3aR); Table 11, [^125I]-C3a)	IC50 (C3a receptor (C3aR); [7]) [nM]	pEC50 ± SEM (C3aR [1]; [8])	EC50 (C3aR [1]; [9]) [nM]	EC50 (C3aR [1]; [10]) [nM]	EC50 (C3aR [1]; [12]) [nM]	Induction of gene expression of IL1B, IL8, CCL3, EGR1, FOSB and TNF [2]	Ca^2+ efflux on addition after first desensitization with hC3a (selectivity for C3aR over other GPCRs) (C3aR [3])	other results
hC3a: human complement protein C3a, natural ligand of the C3a receptor; unlabelled competitor and reference agonist	9.64 ± 0.04	0.23	0.07	9.64 ± 0.04	0.23	7.19 ± 0.06	65	45000	65	significantly induce gene expression		Apparent Antagonist Activity pEC50 ± SE (C3aR [1]; [11]): 7.2 ± 0.06
CC[C@H](C)[C@H](NC(=O)OC(C)(C)C)c1nc(C(=O)N[C@@H](CCCNC(=N)N)C(=O)O)c(C)o1 [Compound 25, Boc-isoleucine-5-methyl-oxazole-arginine-OH]					15		45		45		caused a second efflux of intracellular Ca^2+	IC50 (C3a receptor (C3aR); Table 6, competitive binding with [^125I]-C3a, read-out: pIC50 ± SEM (converted)): 13.8 nM; IC50 (C3a receptor (C3aR); Table 11, [^125I]-C3a, read-out: Receptor Binding Affinity pIC50 ± SE (converted)): 13.8 nM; EC50 (C3aR [1]; Table 11, Ca^2+ mobilisation, HMDM, read-out: Apparent Antagonist Activity pEC50 ± SE (converted)): 39.8 nM
Cc1nc(C(c2ccccc2)c2ccccc2)[nH]c1C(=O)N[C@@H](CCCNC(=N)N)C(=O)O [Compound 64, 2-Diphenylmethyl-4-methyl imidazole-5-carboxyl-Arg-OH]			7.6					24		significantly induce gene expression; also recorded: induced expression of inflammatory genes		-Log IC50 (C3a receptor (C3aR); Table 14, binding affinity for C3aR on HMDM): 8.0; Function at C3aR (agonist / antagonist) (C3aR [1]; text of Example 100): potent full agonist
CC[C@H](C)[C@H](NC(=O)c1nccc2ccccc12)c1nc(C(=O)N[C@@H](CCCNC(=N)N)C(=O)O)co1 [Compound 10, Isoquinoline-1-Isoleucine-Oxazole-Arginine-OH]		123									did not produce calcium efflux	EC50 (C3aR [1]; Table 9, Ca^2+ mobilization, HMDM, read-out: pEC50 ± SEM (converted)): 40.7 nM
NC(N)=NCCC[C@H](NC(=O)COCC(c1ccccc1)c1ccccc1)C(=O)O [SB290157, reference compound]	7.42 ± 0.06	38	11	7.42 ± 0.06	38	5.52 ± 0.08						IC50 (C3aR [1]; Table 9, antagonist SB290157, Ca^2+ mobilization, HMDM, read-out: IC50 (printed in the EC50 (nM) column)): 3050 nM; IC50 (C3aR [1]; Table 10, HMDM, read-out: Antagonist Activity Ca^2+ IC50): 1300 nM; Apparent Antagonist Activity pEC50 ± SE (symbol) (C3aR [1]; Table 11): * (The compounds show no agonist activity in calcium mobilisation assays up to 100 μM.); Apparent Antagonist Activity pIC50 ± SE (C3aR [1]; [11]): 5.6 ± 0.09; IC50 (C3aR [1]; Table 11, Ca^2+ mobilisation, HMDM, read-out: Apparent Antagonist Activity IC50): 2700 nM; Effect of antagonist on gene induction by C3a or compounds 8 or 64 ([2]; SB290157 5 μM, 30 mins preincubation): prevented
Cc1oc([C@H](CC(C)C)NC(=O)NCc2ccccc2)nc1C(=O)N[C@@H](CCCNC(=N)N)C(=O)O [Compound 46, Benzylisocyanate-Leucine-5-Methyl-Oxazole-Arginine]												remaining activity at 20 µM (C3a receptor (C3aR); 1 h, read-out: %[^125I]-C3a binding): 61%; Emax at 10 µM (C3aR [1]; read-out: % agonist): 50%
